For six compounds, CC50 and EC50 results are on record in US11958834B2, “Inhibitors of human immunodeficiency virus replication” (VIIV HEALTHCARE UK (No. 5) LIMITED, priority 2018, dated 2024).

For orientation: CC50 means the concentration that lowers cell viability or growth by half. A higher CC50 goes with lower toxicity to the cells. One may read the pEC50 as the EC50 on a negative log10 scale, so that one unit is a factor of ten.

Structures are written as SMILES. pEC50: −log10 of the molar value. Some results are limits rather than exact numbers.

Type in all cases: cell-based
Data set [1] can be described thus: Compound cytotoxicity, XTT-based colorimetric assay. Particulars: human; uninfected MT2 cells, day 4, XTT. As for the experimental part:
(§1) Compound cytotoxicity and the corresponding CC50 values were determined using the same protocol as described in the antiviral assay except that uninfected cells were used. Cytotoxicity was assessed on day 4 in uninfected MT2 cells by using a XTT (2,3-bis[2-Methoxy-4-nitro-5-sulfophenyl]-2H-tetrazolium-5-carboxyanilide inner salt)-based colorimetric assay (Sigma-Aldrich, St Louis, Mo.).
Background: Tetrazolium dyes change colour on reduction, which living cells bring about.

For data set [2], the system named is recombinant NL4-3 virus (Renilla luciferase) in MT-2 cells. Kind of data set: HIV cell culture assay (antiviral activity, luciferase readout). How it is done:
HIV cell culture assay—MT-2 cells, 293T cells and the proviral DNA clone of NL4-3 virus were obtained from the NIH AIDS Research and Reference Reagent Program. MT-2 cells were propagated in RPMI 1640 media supplemented with 10% heat inactivated fetal bovine serum (FBS), 100 μg/ml penicillin G and up to 100 units/mL streptomycin. The 293T cells were propagated in DMEM media supplemented with 10% heat inactivated FBS, 100 μg/mL penicillin G and 100 μg/mL streptomycin. A recombinant NL4-3 proviral clone, in which a section of the nef gene was replaced with the Renilla luciferase gene, was used to make the reference virus used in these studies. The recombinant virus was prepared through transfection of the recombinant NL4-3 proviral clone into 293T cells using Transit-293 Transfection Reagent from Mirus Bio LLC (Madison, Wis.). Supernatant was harvested after 2-3 days and the amount of virus present was titered in MT-2 cells using luciferase enzyme activity as a marker by measuring luciferase enzyme activity. Luciferase was quantitated using the EnduRen Live Cell Substrate from Promega (Madison, Wis.). Antiviral activities of compounds toward the recombinant virus were quantified by measuring luciferase activity in MT-2 cells infected for 4-5 days with the recombinant virus in the presence of serial dilutions of the compound.
The 50% effective concentration (EC50) was calculated by using the exponential form of the median effect equation where (Fa)=1/[1+(ED50/drug conc.)^m] (Johnson V A, Byington R T. Infectivity Assay. In Techniques in HIV Research. ed. Aldovini A, Walker B D. 71-76. New York: Stockton Press. 1990).

A further data set relates to uninfected MT2 cells. Description: Compound cytotoxicity, XTT-based colorimetric assay. The conditions noted are these: day 4, XTT. How it is done:
as §1

[3] abbreviates: Renilla, NL43, MT-2 cells infected for 4-5 days with recombinant NL4-3 Renilla luciferase virus.
Where [4] appears, read: MT-2 cells infected for 4-5 days with recombinant NL4-3 Renilla luciferase virus.

For the compound `Cn1nc(NS(C)(=O)=O)c2c(Cl)ccc(-n3c([C@H](Cc4cc(F)cc(F)c4)NC(=O)Cn4nc(C(F)(F)F)c5c4C(F)(F)[C@@H]4C[C@H]54)nccc3=O)c21` [Example 6, N—((S)-1-((1P)-1-(4-chloro-1-methyl-3-(methylsulfonamido)-1H-indazol-7-yl)-6-oxo-1,6-dihydropyrimidin-2-yl)-2-(3,5-difluorophenyl)ethyl)-2-((3bS,4aR)-5,5-difluoro-3-(trifluoromethyl)-3b,4,4a,5-tetrahydro-1H-cyclopropa[3,4]cyclopenta[1,2-c]pyrazol-1-yl)acetamide], the CC50 at 4 days in data set [1] is > 1000 nM. The pEC50 in data set [2] (setting [3]) was 9.31.

For `Cn1nc(NS(C)(=O)=O)c2c(Cl)ccc(-n3c([C@H](Cc4cc(F)cc(F)c4)NC(=O)Cn4nc(C(F)F)c5c4C(F)(F)[C@@H]4C[C@H]54)nccc3=O)c21` (mixture of isomers) [Example 1, N—((S)-1-(1-(4-chloro-1-methyl-3-(methylsulfonamido)-1H-indazol-7-yl)-6-oxo-1,6-dihydropyrimidin-2-yl)-2-(3,5-difluorophenyl)ethyl)-2-((3bS,4aR)-3-(difluoromethyl)-5,5-difluoro-3b,4,4a,5-tetrahydro-1H-cyclopropa[3,4]cyclopenta[1,2-c]pyrazol-1-yl)acetamide], in data set [1], the CC50 at 4 days is > 1000 nM. Further, the negative logarithm of the EC50 (pEC50) in data set [2] (setting [4]) is 7.49.

As for `Cn1nc(NS(C)(=O)=O)c2c(Cl)ccc(-n3c([C@@H](Cc4cc(F)cc(F)c4)NC(=O)Cn4nc(C(F)(F)F)c5c4C(F)(F)[C@@H]4C[C@H]54)nccc3=O)c21` [Example 5, N—((R)-1-((1M)-1-(4-chloro-1-methyl-3-(methylsulfonamido)-1H-indazol-7-yl)-6-oxo-1,6-dihydropyrimidin-2-yl)-2-(3,5-difluorophenyl)ethyl)-2-((3bS,4aR)-5,5-difluoro-3-(trifluoromethyl)-3b,4,4a,5-tetrahydro-1H-cyclopropa[3,4]cyclopenta[1,2-c]pyrazol-1-yl)acetamide], in data set [1], the CC50 at 4 days is > 1000 nM. Also, the pEC50 in data set [2] (setting [3]) was 7.15.

On to `Cn1nc(NS(C)(=O)=O)c2c(Cl)ccc(-n3c([C@H](Cc4cc(F)cc(F)c4)NC(=O)Cn4nc(C(F)F)c5c4C(F)(F)[C@@H]4C[C@H]54)nccc3=O)c21` (mixture of isomers) [Example 2, N—((S)-1-(1-(4-chloro-1-methyl-3-(methylsulfonamido)-1H-indazol-7-yl)-6-oxo-1,6-dihydropyrimidin-2-yl)-2-(3,5-difluorophenyl)ethyl)-2-((3bS,4aR)-3-(difluoromethyl)-5,5-difluoro-3b,4,4a,5-tetrahydro-1H-cyclopropa[3,4]cyclopenta[1,2-c]pyrazol-1-yl)acetamide], for which the CC50 with uninfected MT2 cells is > 1000 nM. For the same compound, the pEC50 in data set [2] (setting [4]) is 9.93.

In the case of `Cn1nc(NS(C)(=O)=O)c2c(Cl)ccc(-n3c([C@@H](Cc4cc(F)cc(F)c4)NC(=O)Cn4nc(C(F)F)c5c4C(F)(F)[C@@H]4C[C@H]54)nccc3=O)c21` [Example 3, N—((R)-1-((1M)-1-(4-chloro-1-methyl-3-(methylsulfonamido)-1H-indazol-7-yl)-6-oxo-1,6-dihydropyrimidin-2-yl)-2-(3,5-difluorophenyl)ethyl)-2-((3bS,4aR)-3-(difluoromethyl)-5,5-difluoro-3b,4,4a,5-tetrahydro-1H-cyclopropa[3,4]cyclopenta[1,2-c]pyrazol-1-yl)acetamide], the CC50 at 4 days in data set [1] was > 1000 nM. The pEC50 in data set [2] (setting [3]) is 7.90.

For `Cn1nc(NS(C)(=O)=O)c2c(Cl)ccc(-n3c([C@H](Cc4cc(F)cc(F)c4)NC(=O)Cn4nc(C(F)F)c5c4C(F)(F)[C@@H]4C[C@H]54)nccc3=O)c21` [Example 4], in the data set on uninfected MT2 cells, the half-maximal cytotoxic concentration (CC50) was > 1000 nM. Further, the pEC50 in data set [2] (setting [3]) was 9.26.
